Assay results reported in ChEMBL document CHEMBL4130638, “Discovery of the Polyamine Conjugate with Benzo[ cd]indol-2(1 H)-one as a Lysosome-Targeted Antimetastatic Agent” (J Med Chem, 2018).
The source made the active and inactive calls. The rule behind the calls is not given here.

Assays:
CT26 [1] = experiment: Induction of apoptosis in mouse CT26 cells assessed as necrotic cells at 10 uM after 24 hrs in presence of autophagy inhibitor 3-MA by annexin V-FITC/propidium iodide staining based flow cytometry (reference value: 4.36%); type: functional
SMMC-7721 = experiment: Growth inhibition of human SMMC7721 cells after 48 hrs by MTT assay; type: functional, cell-based; conditions: SMMC-7721, 48 h
Mus musculus [2] = experiment: Toxicity in Balb/c mouse implanted with mouse CT26 cells assessed as increase in heart weight at 1 mg/kg, iv for 14 consecutive days starting from day 8 post tumor implantation; type: organism-based; conditions: in vivo
CT26 [3] = experiment: Induction of apoptosis in mouse CT26 cells assessed as early apoptotic cells at 10 uM after 24 hrs in presence of autophagy inhibitor 3-MA by annexin V-FITC/propidium iodide staining based flow cytometry (reference value: 3.91%); type: functional
HCT-116 [4] = experiment: Growth inhibition of human HCT116 cells after 48 hrs by MTT assay; type: functional, cell-based; conditions: HCT-116, 48 h
Mus musculus [5] = experiment: Toxicity in Balb/c mouse implanted with mouse CT26 cells assessed as increase in heart weight at 1 mg/kg, iv for 7 consecutive days starting from day 8 post tumor implantation; type: organism-based; conditions: in vivo
Mus musculus [6] = experiment: Toxicity in Balb/c mouse implanted with mouse CT26 cells assessed as increase in liver weight at 1 mg/kg, iv for 14 consecutive days starting from day 8 post tumor implantation; type: organism-based; conditions: in vivo
CT26 [7] = experiment: Induction of apoptosis in mouse CT26 cells assessed as late apoptotic cells after 24 hrs by annexin V-FITC/propidium iodide staining based flow cytometry; type: functional, cell-based
Mus musculus [8] = experiment: Toxicity in Balb/c mouse implanted with mouse CT26 cells assessed as increase in spleen weight at 1 mg/kg, iv for 14 consecutive days starting from day 8 post tumor implantation; type: organism-based; conditions: in vivo
HCT-116 [9] = experiment: Upregulation of cleaved caspase-8 protein expression in human HCT116 cells up to 10 uM after 24 hrs by Western blot method; type: functional, cell-based
HepG2 = experiment: Growth inhibition of human HepG2 cells after 48 hrs by MTT assay; type: functional, cell-based; conditions: HepG2, 48 h
CT26 [10] = experiment: Induction of apoptosis in mouse CT26 cells assessed as early apoptotic cells at 10 uM after 24 hrs by annexin V-FITC/propidium iodide staining based flow cytometry (reference value: 3.91%); type: functional
HCT-116 [11] = experiment: Induction of apoptosis in human HCT116 cells assessed as live cells at 10 uM after 24 hrs in presence of autophagy inhibitor 3-MA by annexin V-FITC/propidium iodide staining based flow cytometry (reference value: 89.97%); type: functional
HCT-116 [12] = experiment: Induction of autophagy in human HCT116 cells at 5 to 20 uM after 24 hrs in presence of pan-caspase inhibitor Z-VAD-FMK by MDC staining based flow cytometry; type: functional, cell-based
Mus musculus [13] = experiment: Toxicity in Balb/c mouse implanted with mouse CT26 cells assessed as changes in body weight at 1 mg/kg, iv for 14 consecutive days starting from day 8 post tumor implantation; type: organism-based; conditions: in vivo
HCT-116 [14] = experiment: Induction of apoptosis in human HCT116 cells assessed as live cells at 10 uM after 24 hrs in presence of pan-caspase inhibitor Z-VAD-FMK by annexin V-FITC/propidium iodide staining based flow cytometry (reference value: 89.97%); type: functional
HCT-116 [15] = experiment: Antimigratory activity against human HCT116 cells after 24 hrs by crystal violet staining based transwell assay; type: functional, cell-based
[16] = Drug uptake in human HCT116 cell lysosomes at 10 uM after 2 hrs by Lyso-tracker staining based confocal microscopic method; type: ADME, subcellular, Lysosome; conditions: hct-116, 2 h
HCT-116 [17] = experiment: Induction of apoptosis in human HCT116 cells assessed as late apoptotic cells at 10 uM after 24 hrs in presence of autophagy inhibitor 3-MA by annexin V-FITC/propidium iodide staining based flow cytometry (reference value: 2.03%); type: functional
Mus musculus [18] = experiment: Toxicity in Balb/c mouse implanted with mouse CT26 cells assessed as changes in body weight at 1 mg/kg, iv for 7 consecutive days starting from day 8 post tumor implantation; type: organism-based; conditions: in vivo
HCT-116 [19] = experiment: Upregulation of cleaved caspase-3 protein expression in human HCT116 cells up to 10 uM after 24 hrs by Western blot method; type: functional, cell-based
HCT-116 [20] = experiment: Induction of apoptosis in human HCT116 cells assessed as late apoptotic cells at 10 uM after 24 hrs in presence of pan-caspase inhibitor Z-VAD-FMK by annexin V-FITC/propidium iodide staining based flow cytometry (reference value: 2.03%); type: functional
HCT-116 [21] = experiment: Upregulation of LAMP1 protein expression in human HCT116 cells at 10 uM after 24 hrs by Western blot method; type: functional, cell-based
CT26 [22] = experiment: Induction of autophagy in mouse CT26 cells at 5 to 20 uM after 24 hrs by Lyso staining based flow cytometry; type: functional, cell-based
HCT-116 [23] = experiment: Induction of apoptosis in human HCT116 cells assessed as early apoptotic cells at 10 uM after 24 hrs in presence of autophagy inhibitor 3-MA by annexin V-FITC/propidium iodide staining based flow cytometry (reference value: 4.1%); type: functional
HCT-116 [24] = experiment: Induction of apoptosis in human HCT116 cells assessed as late apoptotic cells after 24 hrs by annexin V-FITC/propidium iodide staining based flow cytometry; type: functional, cell-based
HCT-116 [25] = experiment: Growth inhibition of human HCT116 cells after 24 hrs by MTT assay; type: functional, cell-based
HCT-116 [26] = experiment: Induction of apoptosis in human HCT116 cells assessed as early apoptotic cells at 10 uM after 24 hrs by annexin V-FITC/propidium iodide staining based flow cytometry (reference value: 4.1%); type: functional
CT26 [27] = experiment: Induction of apoptosis in mouse CT26 cells assessed as early apoptotic cells after 24 hrs by annexin V-FITC/propidium iodide staining based flow cytometry; type: functional, cell-based
HCT-116 [28] = experiment: Downregulation of Akt protein expression in human HCT116 cells up to 10 uM after 24 hrs in presence of autophagy inhibitor 3-MA by Western blot method; type: functional, cell-based
HCT-116 [29] = experiment: Downregulation of Bcl2 protein expression in human HCT116 cells up to 10 uM after 24 hrs by Western blot method; type: functional, cell-based
HCT-116 [30] = experiment: Induction of apoptosis in human HCT116 cells assessed as necrotic cells at 10 uM after 24 hrs in presence of pan-caspase inhibitor Z-VAD-FMK by annexin V-FITC/propidium iodide staining based flow cytometry (reference value: 3.9%); type: functional
HCT-116 [31] = experiment: Upregulation of cleaved caspase-3 protein expression in human HCT116 cells up to 10 uM after 24 hrs in presence of autophagy inhibitor 3-MA by Western blot method; type: functional, cell-based
CT26 [32] = experiment: Induction of apoptosis in mouse CT26 cells assessed as live cells at 10 uM after 24 hrs by annexin V-FITC/propidium iodide staining based flow cytometry (reference value: 89.47%); type: functional
HCT-116 [33] = experiment: Decrease in spermidine level in human HCT116 cells at 2.5 to 10 uM after 24 hrs by G1321A fluorescence detector coupled HPLC analysis; type: functional, cell-based
HCT-116 [34] = experiment: Induction of autophagy in human HCT116 cells assessed as accumulation of LC3-2 after 24 hrs by Western blot method; type: functional, cell-based
HCT-116 [35] = experiment: Induction of apoptosis in human HCT116 cells assessed as necrotic cells at 10 uM after 24 hrs in presence of autophagy inhibitor 3-MA by annexin V-FITC/propidium iodide staining based flow cytometry (reference value: 3.9%); type: functional

Q: For `Cl.Cl.Cl.NCCCCNCCCCNCCCCN1C(=O)c2cccc3cccc1c23`, which Activity (CT26 [1]) is on record?
A: 4.42%

Q: And the IC50 (SMMC-7721)?
A: 13.5 µM

Q: And the Activity (Mus musculus [2])?
A: Toxic

Q: What about the Activity (CT26 [3]) of the same compound?
A: 27.36%

Q: And the IC50 (HCT-116 [4])?
A: 5.72 µM

Q: And the Activity (Mus musculus [5])?
A: Toxic

Q: What about the Activity (Mus musculus [6]) of the same compound?
A: Toxic

Q: What about the Activity (CT26 [7]) of the same compound?
A: Dose-dependent effect

Q: What about the Activity (Mus musculus [8]) of the same compound?
A: Toxic

Q: What about the Activity (HCT-116 [9]) of the same compound?
A: Active

Q: What about the IC50 (HepG2) of the same compound?
A: 5.28 µM

Q: And the Activity (CT26 [10])?
A: 42.37%

Q: What about the Activity (HCT-116 [11]) of the same compound?
A: 56.54%

Q: What about the Activity (HCT-116 [12]) of the same compound?
A: inactive

Q: What about the Activity (Mus musculus [13]) of the same compound?
A: Non-Toxic

Q: What about the Activity (HCT-116 [14]) of the same compound?
A: 66.87%

Q: And the Activity (HCT-116 [15])?
A: Dose-dependent effect

Q: And the Drug uptake [16]?
A: Active

Q: What about the Activity (HCT-116 [17]) of the same compound?
A: 18.92%

Q: And the Activity (Mus musculus [18])?
A: Non-Toxic

Q: What about the Activity (HCT-116 [19]) of the same compound?
A: Active

Q: What about the Activity (HCT-116 [20]) of the same compound?
A: 13.6%

Q: And the Activity (HCT-116 [21])?
A: Active

Q: What about the Activity (CT26 [22]) of the same compound?
A: Active

Q: What about the Activity (HCT-116 [23]) of the same compound?
A: 17.3%

Q: And the Activity (HCT-116 [24])?
A: Dose-dependent effect

Q: What about the “growth inhibition (GI)” value (HCT-116 [25]) of the same compound?
A: Dose-dependent effect

Q: And the IC50 (HCT-116 [25]; HCT-116, 24 h)?
A: 6.9 µM

Q: And the Activity (HCT-116 [26])?
A: 31.31%

Q: And the Activity (CT26 [27])?
A: Dose-dependent effect

Q: What about the Activity (HCT-116 [28]) of the same compound?
A: inactive

Q: What about the Activity (HCT-116 [29]) of the same compound?
A: Active

Q: What about the Activity (HCT-116 [30]) of the same compound?
A: 8.07%

Q: What about the Activity (HCT-116 [31]) of the same compound?
A: inactive

Q: And the Activity (CT26 [32])?
A: 30.85%

Q: And the Activity (HCT-116 [33])?
A: Active

Q: And the Activity (HCT-116 [34])?
A: Dose-dependent effect

Q: And the Activity (HCT-116 [35])?
A: 7.21%
